Broadly, the pIC50 is the negative decadic logarithm of the IC50, by convention in mol/L.

pIC50: −log10 of the molar value.

The assay has as its target HSP90 (Homo sapiens, UniProt P07900). Briefly: HSP90 inhibition (HSP90 IC50). Type of assay: biochemical.
`C=CCc1c(OC)cccc1C(=O)N[C@H]1C[C@H]2CC[C@@H](C1)N2c1ccc(C(=O)NCc2ccccc2)cn1` [6-[3-endo-({[3-(methyloxy)-2-prop-2-en-1-ylphenyl]carbonyl}amino)-8-azabicyclo[3.2.1]oct-8-yl]-N-(phenylmethyl)pyridine-3-carboxamide] gave a pIC50 of 6.00 to 6.30.
Under `COc1cccc(C(=O)N[C@H]2C[C@H]3CC[C@@H](C2)N3c2ccc(C(=O)NCc3cccnc3)cn2)c1C` [6-[3-endo-({[2-methyl-3-(methyloxy)phenyl]carbonyl}amino)-8-azabicyclo[3.2.1]oct-8-yl]-N-(pyridin-3-ylmethyl)pyridine-3-carboxamide] stands more than 6.30; under `CC[C@@H](C)Nc1cc(C(=O)NC2CC3CCC(C2)N3c2ccc(C(=O)C3CC3)cn2)c(C(F)(F)F)cc1C(N)=O` (stereo partly drawn) [N-{8-[5-(cyclopropylcarbonyl)pyridin-2-yl]-8-azabicyclo[3.2.1]oct-3-endo-yl}-5-{[(1R)-1-methylpropyl]amino}-2-(trifluoromethyl)benzene-1,4-dicarboxamide], more than 6.30; under `CCCNC(=O)c1ccc(N2[C@@H]3CC[C@H]2C[C@@H](NC(=O)c2cccc(OC)c2C)C3)nc1` [6-[3-endo-({[2-methyl-3-(methyloxy)phenyl]carbonyl}amino)-8-azabicyclo[3.2.1]oct-8-yl]-N-propylpyridine-3-carboxamide], 5.70 to 6.00.
`COc1cccc(C(=O)N[C@H]2C[C@H]3CC[C@@H](C2)N3c2ccc(C(=O)NCCOC(C)C)cn2)c1C` [N-{2-[(1-methylethyl)oxy]ethyl}-6-(3-endo-({[2-methyl-3-(methyloxy)phenyl]carbonyl}amino)-8-azabicyclo[3.2.1]oct-8-yl]pyridine-3-carboxamide] gave a pIC50 of 5.00 to 5.70.
In turn, `CC(C)(C)Nc1cc(C(=O)N[C@H]2C[C@H]3CC[C@@H](C2)N3c2ccc(C(=O)C3CC3)cn2)c(Br)cc1C(N)=O` [2-bromo-N-{8-[5-(cyclopropylcarbonyl)pyridin-2-yl]-8-azabicyclo[3.2.1]oct-3-endo-yl}-5-[(1,1-dimethylethyl)amino]benzene-1,4-dicarboxamide] gave a pIC50 of more than 6.30.
Regarding `CC(=O)c1ccc(N2[C@@H]3CC[C@H]2C[C@@H](NC(=O)c2cc(C)c(C(N)=O)cc2C)C3)nc1` [N-[8-(5-acetylpyridin-2-yl)-8-azabicyclo[3.2.1]oct-3-endo-yl]-2,5-dimethylbenzene-1,4-dicarboxamide], the pIC50 is more than 6.30.
`NC(=O)c1ccc(C(=O)N[C@H]2C[C@H]3CC[C@@H](C2)N3c2ccc(C(=O)CCN3CCOCC3)cn2)cc1NCC1CC1` [2-[(cyclopropylmethyl)amino]-N4-{8-[5-(3-morpholin-4-ylpropanoyl)pyridin-2-yl]-8-azabicyclo[3.2.1]oct-3-endo-yl}benzene-1,4-dicarboxamide] showed a pIC50 of more than 6.30.
Turning to `Cc1cc(C(=O)NC2CC3CCC(C2)N3c2ccc(C(=O)N[C@@H]3CCN(C)C3)cn2)c(C)cc1C(N)=O` (stereo partly drawn) [2,5-dimethyl-N-{8-[5-({[(3R)-1-methylpyrrolidin-3-yl]amino}carbonyl)pyridin-2-yl]-8-azabicyclo[3.2.1]oct-3-endo-yl}benzene-1,4-dicarboxamide], the pIC50 was 6.00 to 6.30.
Compound `COc1cccc(C(=O)N[C@H]2C[C@H]3CC[C@@H](C2)N3c2ccc(C(=O)NCc3ccc(N4CCNCC4)cc3)cn2)c1C` [6-[3-endo-({[2-methyl-3-(methyloxy)phenyl]carbonyl}amino)-8-azabicyclo[3.2.1]oct-8-yl]-N-[(4-piperazin-1-ylphenyl)methyl]pyridine-3-carboxamide] showed a negative logarithm of the IC50 (pIC50) of more than 6.30.
`COc1cccc(C(=O)N[C@H]2C[C@H]3CC[C@@H](C2)N3c2ccc(C(=O)NCc3c(F)cccc3F)cn2)c1C` [N-[(2,6-difluorophenyl)methyl]-6-[3-endo-({[2-methyl-3-(methyloxy)phenyl]carbonyl}amino)-8-azabicyclo[3.2.1]oct-8-yl]pyridine-3-carboxamide]: the pIC50 was more than 6.30.
Compound `NC(=O)c1ccc(N2C3CCC2CC(NC(=O)c2ccc(C(N)=O)c(N[C@H]4CC[C@H](O)CC4)c2)C3)nc1` (stereo partly drawn) [N4-{8-[5-(aminocarbonyl)pyridin-2-yl]-8-azabicyclo[3.2.1]oct-3-endo-yl}-2-[(4-hydroxycyclohexyl)amino]benzene-1,4-dicarboxamide] had a pIC50 of more than 6.30.
For `COc1cccc(C(=O)NC2CC3CCC(C2)N3c2ccc(C(=O)N[C@@H](C)c3ccccc3)cn2)c1C` (stereo partly drawn) [6-[3-endo-({[2-methyl-3-(methyloxy)phenyl]carbonyl}amino)-8-azabicyclo[3.2.1]oct-8-yl]-N-[(1S)-1-phenylethyl]pyridine-3-carboxamide], the pIC50 was more than 6.30.
On to `COc1cccc(C(=O)N[C@H]2C[C@H]3CC[C@@H](C2)N3c2ccc(C(=O)NCc3c(F)ccc(F)c3Cl)cn2)c1C` [N-[(2-chloro-3,6-difluorophenyl)methyl]-6-[3-endo-({[2-methyl-3-(methyloxy)phenyl]carbonyl}amino)-8-azabicyclo[3.2.1]oct-8-yl]pyridine-3-carboxamide], for which the pIC50 was more than 6.30.
“N4-{8-[5- (cyclopropylcarbonyl)pyridin-2-yl]-8- azabicyclo[3.2.1]oct-3-endo-yl}-2- [(cis-4-hydroxy-4- methylcyclohexyl)amino]benzene- 1,4-dicarboxamide” showed a pIC50 of more than 6.30.
Regarding `NC(=O)c1ccc(C(=O)N[C@H]2C[C@H]3CC[C@@H](C2)N3c2ccc(C(=O)CCN3CCN(c4ccccc4)CC3)cn2)cc1NCC1CC1` [2-[(cyclopropylmethyl)amino]-N4-(8-{5-[3-(4-phenylpiperazin-1-yl)propanoyl]pyridin-2-yl}-8-azabicyclo[3.2.1]oct-3-endo-yl)benzene-1,4-dicarboxamide], the pIC50 is 6.00 to 6.30.
As for `COc1cccc(C(=O)NC2CC3CCC(C2)N3c2ccc(C(=O)NC(C)c3ccc(Cl)cc3)cn2)c1C` (stereo not drawn) [N-[1-(4-chlorophenyl)ethyl]-6-[3-endo-({[2-methyl-3-(methyloxy)phenyl]carbonyl}amino)-8-azabicyclo[3.2.1]oct-8-yl]pyridine-3-carboxamide], the pIC50 is more than 6.30.
Take `NC(=O)c1cc(Br)c(C(=O)N[C@H]2C[C@H]3CC[C@@H](C2)N3c2ccc(C(=O)C3CC3)cn2)cc1NC1CCCC1` [2-bromo-5-(cyclopentylamino)-N-{8-[5-(cyclopropylcarbonyl)pyridin-2-yl]-8-azabicyclo[3.2.1]oct-3-endo-yl}benzene-1,4-dicarboxamide]: the pIC50 is more than 6.30.
Under `COc1cccc(C(=O)N[C@H]2C[C@H]3CC[C@@H](C2)N3c2ccc(C(=O)NCc3ccccc3F)cn2)c1C` [N-[(2-fluorophenyl)methyl]-6-[3-endo-({[2-methyl-3-(methyloxy)phenyl]carbonyl}amino)-8-azabicyclo[3.2.1]oct-8-yl]pyridine-3-carboxamide] stands more than 6.30.
For `COCCOc1cc(C(=O)N[C@H]2C[C@H]3CC[C@@H](C2)N3c2ccc(C(=O)C3CC3)cn2)c(C)cc1C(N)=O` [N-{8-[5-(cyclopropylcarbonyl)pyridin-2-yl]-8-azabicyclo[3.2.1]oct-3-endo-yl}-2-methyl-5-{[2-(methyloxy)ethyl]oxy}benzene-1,4-dicarboxamide], the pIC50 was 6.00 to 6.30.
`O=C(NCc1ccccc1)c1ccc(N2[C@@H]3CC[C@H]2C[C@@H](NC(=O)c2ccc(CO)cc2)C3)nc1` [6-[3-endo-({[4-(hydroxymethyl)phenyl]carbonyl}amino)-8-azabicyclo[3.2.1]oct-8-yl]-N-(phenylmethyl)pyridine-3-carboxamide] showed a pIC50 of more than 6.30.

The values are drawn from US8012956B2, “Tropane compounds” (Exelixis, Inc., priority 2007, dated 2011).
